Laboratory results reported in patent US20130345420A9, “SELECTIVE INHIBITORS OF EXCITATORY AMINO ACID TRANSPORTER SUBTYPE 1 (EAAT1/GLAST)” (priority 2008, published 2013).
Where two headings read alike, the source gives them in different places. One block for each molecule: values may come before it.

How the values were obtained:
human EAAT1 = molecular target: T1, human EAAT1 (Homo sapiens, UniProt P43003); assay: [3H]-D-Aspartic acid uptake assay, HEK293 cells stably expressing EAAT1; format: cell-based
T1 construct: expressed in transfected cells
Description: (§1) Table 1: Inhibition of [^3H]-D-Asp uptake in HEK293 cells stably expressing human EAAT1, EAAT2 and EAAT3. The IC50 values are given in μM with pIC50±S.E.M. values in brackets (n=3-7).
(§2) The functional properties of the novel compounds of the invention were assessed in a [^3H]-D-Aspartic acid uptake assay using HEK293 cell lines stably expressing the human EAAT subtypes EAAT1, EAAT2 and EAAT3. Furthermore, some of the compounds were assayed at human EAAT1, EAAT2 and EAAT3 and the rat orthologs GLAST, GLT-1 and EAAC-1 in the FLIPR® Membrane Potential (FMP) Blue assay (Molecular Devices, Crawley, UK).
(§3) FIG. I depicts a graph showing the concentration-inhibition curves for 1o at the human EAAT subtype EAAT1 stably expressed in HEK293 cell lines in a [^3H]-D-aspartic acid uptake assay. The cells (grown in wells of 96-well plates) were washed twice with assay buffer, and incubated with buffer supplemented with 30 nM [^3H]-D-aspartic acid in the absence (control) or presence of increasing concentrations of 1o at […] for 7 min. The assay mixtures were then quickly removed from the wells, and the cells were washed with 3 times with ice-cold buffer, scintillation fluid was added to each well, and the plate was counted in a TopCounter.

human EAAT3 = molecular target: T2, human EAAT3 (Homo sapiens, UniProt P43005); assay: [3H]-D-Aspartic acid uptake assay, HEK293 cells stably expressing EAAT3; format: cell-based; conditions: n=3-7, read-out: Inhibition of [3H]-D-Asp uptake, EAAT3, IC50
T2 construct: expressed in transfected cells
T2 sequence (P43005 1-524): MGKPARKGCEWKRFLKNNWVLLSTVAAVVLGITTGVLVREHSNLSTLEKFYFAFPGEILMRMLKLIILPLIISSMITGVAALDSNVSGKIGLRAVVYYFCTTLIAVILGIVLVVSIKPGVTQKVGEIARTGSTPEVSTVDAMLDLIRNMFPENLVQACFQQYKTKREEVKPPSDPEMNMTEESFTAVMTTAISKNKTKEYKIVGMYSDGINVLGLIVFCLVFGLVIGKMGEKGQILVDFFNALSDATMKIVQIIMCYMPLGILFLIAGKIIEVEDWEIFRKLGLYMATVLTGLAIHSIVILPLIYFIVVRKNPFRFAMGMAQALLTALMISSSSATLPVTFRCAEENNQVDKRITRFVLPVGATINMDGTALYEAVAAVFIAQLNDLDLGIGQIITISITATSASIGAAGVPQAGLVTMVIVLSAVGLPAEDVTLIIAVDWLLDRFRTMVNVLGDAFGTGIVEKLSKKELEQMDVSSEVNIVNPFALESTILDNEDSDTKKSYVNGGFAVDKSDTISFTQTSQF
Description: as §1, §2, §3

human EAAT2 = molecular target: T3, human EAAT2 (Homo sapiens, UniProt P43004); assay: [3H]-D-Aspartic acid uptake assay, HEK293 cells stably expressing EAAT2; format: cell-based; conditions: n=3-7, read-out: Inhibition of [3H]-D-Asp uptake, EAAT2, IC50
T3 construct: expressed in transfected cells
Description: as §1, §2, §3

Solubility in solvents = format: physicochemical; conditions: aq buffer solutions (pH=7.4), DMSO and CDCl3
[1] = HEK293 cells stably expressing human EAAT1, n=3-7, read-out: Inhibition of [3H]-D-Asp uptake, EAAT1, IC50
[2] = HEK293 cells stably expressing human EAAT1, value in brackets, n=3-7
[3] = HEK293 cells stably expressing human EAAT1, value in brackets, n=3-7, read-out: Inhibition of [3H]-D-Asp uptake, EAAT1, pIC50±S.E.M. (converted)

T1 sequence (P43003 whole entry): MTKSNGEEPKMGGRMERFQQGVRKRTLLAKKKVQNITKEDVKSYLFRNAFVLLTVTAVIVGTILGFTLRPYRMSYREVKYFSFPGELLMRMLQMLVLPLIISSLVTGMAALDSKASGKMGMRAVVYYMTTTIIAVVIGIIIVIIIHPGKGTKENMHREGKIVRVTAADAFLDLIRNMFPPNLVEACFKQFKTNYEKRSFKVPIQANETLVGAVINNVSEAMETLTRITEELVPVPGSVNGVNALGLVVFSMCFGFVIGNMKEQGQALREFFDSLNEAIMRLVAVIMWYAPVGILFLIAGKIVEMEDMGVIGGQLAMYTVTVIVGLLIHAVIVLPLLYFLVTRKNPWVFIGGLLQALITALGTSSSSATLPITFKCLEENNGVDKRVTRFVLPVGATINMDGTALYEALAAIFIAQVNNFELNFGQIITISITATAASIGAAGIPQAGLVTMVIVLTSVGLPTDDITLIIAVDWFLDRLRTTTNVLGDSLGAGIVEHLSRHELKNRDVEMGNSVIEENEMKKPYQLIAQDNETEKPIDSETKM
T3 sequence (P43004 whole entry): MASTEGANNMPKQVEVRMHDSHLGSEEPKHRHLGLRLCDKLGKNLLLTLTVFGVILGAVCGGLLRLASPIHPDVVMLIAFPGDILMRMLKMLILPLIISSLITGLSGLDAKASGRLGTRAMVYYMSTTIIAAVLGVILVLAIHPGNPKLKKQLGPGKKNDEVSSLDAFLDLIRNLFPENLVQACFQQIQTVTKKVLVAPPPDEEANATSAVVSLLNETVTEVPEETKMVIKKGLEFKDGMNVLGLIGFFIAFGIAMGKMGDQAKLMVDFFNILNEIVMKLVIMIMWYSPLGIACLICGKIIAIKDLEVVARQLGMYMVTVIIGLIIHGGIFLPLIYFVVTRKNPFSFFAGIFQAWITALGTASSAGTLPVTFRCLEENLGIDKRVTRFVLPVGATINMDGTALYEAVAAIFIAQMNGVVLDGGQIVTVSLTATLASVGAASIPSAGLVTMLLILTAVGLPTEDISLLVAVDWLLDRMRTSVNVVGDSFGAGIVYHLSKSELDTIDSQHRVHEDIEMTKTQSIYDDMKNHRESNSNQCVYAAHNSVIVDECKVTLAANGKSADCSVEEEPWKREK

IC50 (human EAAT1; [1]): 2.3 µM
Inhibition of [3H]-D-Asp uptake, EAAT1, pIC50±S.E.M. (human EAAT1; [2]): 5.64 ± 0.05
SMILES: COc1ccc(C2C(C#N)=C(N)OC3=C2C(=O)CC(c2ccccc2)C3)cc1 (stereo not shown) [1c, 2-Amino-4-(4-methoxyphenyl)-7-(phenyl)-5-oxo-5,6,7,8-tetrahydro-4H-chromene-3-carbonitrile]

IC50 (human EAAT1; [3]): ~50.1 µM
SMILES: COc1cccc(C2C(C#N)=C(N)OC3=C2C(=O)CC(c2ccccc2)C3)c1OC (stereo not shown) [1f]

IC50 (human EAAT3): > 300 µM
IC50 (human EAAT2): > 300 µM
IC50 (human EAAT1; [1]): 11 µM
Inhibition of [3H]-D-Asp uptake, EAAT1, pIC50±S.E.M. (human EAAT1; [2]): 4.97 ± 0.05
melting point: 159.9 to 161.4 °C
SMILES: COc1ccc(C2C(C#N)=C(N)OC3=C2C(=O)CC(c2ccc(OC)c(OC)c2)C3)cc1 (stereo not shown) [1n, 2-Amino-4-(4-methoxyphenyl)-7-(3,4-dimethoxyphenyl)-5-oxo-5,6,7,8-tetrahydro-4H-chromene-3-carbonitrile]

SMILES: COc1ccc(C2C(C#N)=C(N)OC3=C2C(=O)CC(c2ccco2)C3)cc1OC(=O)N1CCOCC1 (stereo not shown) [1q]
IC50 (human EAAT1): ~100 µM

IC50 (human EAAT1; [1]): ~30 µM
SMILES: N#CC1=C(N)OC2=C(C(=O)CC(c3ccccc3)C2)C1c1cccnc1 (stereo not shown) [1s]

IC50 (human EAAT1; [1]): ~30 µM
SMILES: N#CC1=C(N)OC2=C(C(=O)CC(c3ccccc3)C2)C1Cc1ccccc1 (stereo not shown) [1u]

IC50 (human EAAT3): > 300 µM
IC50 (human EAAT2): > 300 µM
IC50 (human EAAT1; [1]): 0.58 µM
IC50 (human EAAT1; [3]): 0.562 µM
Solubility in comparison with 1o (Solubility in solvents): significantly more soluble
SMILES: CC1C(C#N)=C(N)OC2=C1C(=O)CC(c1cccc3ccccc13)C2 (stereo not shown) [1w, 2-Amino-4-methyl-7-(naphthalene-1-yl)-5-oxo-5,6,7,8-tetrahydro-4H-chromene-3-carbo-nitrile]
